Data on 27 compounds can be found in patent US20110038885A1, “CHEMOKINE ANALOGS” (priority 2007, published 2011).

Numbered stars: 1 amine (or outer) side, 2 acyl side, 3 side chain; on linkers, the order of the positions; unused ones are H or OH. Bridge positions count the residues as written; N and C are the ends. Square brackets hold non-standard residues; d marks the D form. Side chains are listed from the residue outwards. Peptide text beside a SMILES is read from it. * marks the point of attachment. γGlu = O=C(O)[C@H](CCC(=O)[*:2])N[*:1]; Diglycolyl = O=C(COCC(=O)[*:2])[*:1]; Glutaryl = O=C(CCCC(=O)[*:2])[*:1]; Suc = O=C(CCC(=O)[*:2])[*:1]; Decanoyl = CCCCCCCCCC(=O)*; Isobutyryl = CC(C)C(=O)*; Orn = NCCC[C@H](N)C(=O)O; Dab = NCC[C@H](N)C(=O)O; Dap = NC[C@H](N)C(=O)O; Bz = O=C(c1ccccc1)*; Ava = NCCCCC(=O)O; GABA = NCCCC(=O)O; βAla = NCCC(=O)O

In this experiment the test system is MCP-1. Briefly: In vitro chemotaxis (trans-well migration) v MCP-1. The experiment is classed as cell-based, human. In short, it runs like this:
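Human THP-1 monocytes (10^4-10^6) with agent at varying concentrations in upper trans-well chamber; IL-8 or MCP-1 in lower chamber at a migration-inducing concentration, 37° C for e.g. 4 hours. Migrated cells quantified by MTT (595 nm) against a THP-1 standard curve; cytotoxicity and non-chemokine chemoattractant controls run.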
By EC50 is commonly meant the concentration at which the effect is half-maximal. A high value points to a need for much substance. Take `CC[C@H](C)[C@@H]1NC(=O)[C@H](Cc2c[nH]c3ccccc23)NC(=O)[C@H](CCCCN)NC(=O)[C@@H](NC(C)=O)CCC(=O)NCCCC[C@@H](C(N)=O)NC(=O)[C@H](CCC(N)=O)NC1=O` [Example 116, Ac-c(Glu-Lys-Trp-Ile-Gln-Lys)-NH2] (Ac-EKWIQK-NH2; lactam 1-6): the EC50 is 8 nM.
The same measure for `CC[C@H](C)[C@@H]1NC(=O)[C@H](Cc2c[nH]c3ccccc23)NC(=O)[C@H](CCCCN)NC(=O)[C@@H](NC(C)=O)CNC(=O)C[C@@H](C(N)=O)NC(=O)[C@H](CCC(N)=O)NC1=O` [Example 117, Ac-c(Dap-Lys-Trp-Ile-Gln-Asp)-NH2] (Ac-[Dap]KWIQD-NH2; lactam 1-6): 5 nM; for `CC[C@H](C)[C@@H]1NC(=O)[C@H](Cc2c[nH]c3ccccc23)NC(=O)[C@H](CCCCN)NC(=O)[C@@H](NC(C)=O)CCNC(=O)C[C@@H](C(N)=O)NC(=O)[C@H](CCC(N)=O)NC1=O` [Example 118, Ac-c(Dab-Lys-Trp-Ile-Gln-Asp)-NH2] (Ac-[Dab]KWIQD-NH2; lactam 1-6): 8 nM; for `CC[C@H](C)[C@@H]1NC(=O)[C@H](Cc2c[nH]c3ccccc23)NC(=O)[C@H](CCCCN)NC(=O)[C@@H](NC(C)=O)CCCNC(=O)C[C@@H](C(N)=O)NC(=O)[C@H](CCC(N)=O)NC1=O` [Example 119, Ac-c(Orn-Lys-Trp-Ile-Gln-Asp)-NH2] (Ac-[Orn]KWIQD-NH2; lactam 1-6): 8 nM.
`CC[C@H](C)[C@@H]1NC(=O)[C@H](Cc2c[nH]c3ccccc23)NC(=O)[C@H](CCCCN)NC(=O)[C@@H](NC(C)=O)CCCCNC(=O)C[C@@H](C(N)=O)NC(=O)[C@H](CCC(N)=O)NC1=O` [Example 120, Ac-c(Lys-Lys-Trp-Ile-Gln-Asp)-NH2] (Ac-KKWIQD-NH2; lactam 1-6) returned an EC50 of 8 nM.
Take `CC[C@H](C)[C@@H]1NC(=O)[C@H](Cc2c[nH]c3ccccc23)NC(=O)[C@H](CCCCN)NC(=O)[C@@H](NC(C)=O)CNC(=O)CC[C@@H](C(N)=O)NC(=O)[C@H](CCC(N)=O)NC1=O` [Example 121, Ac-c(Dap-Lys-Trp-Ile-Gln-Glu)-NH2] (Ac-[Dap]KWIQE-NH2; lactam 1-6): the midpoint of the response, the EC50, lay at 10 nM.
The same measure for `CC[C@H](C)[C@@H]1NC(=O)[C@H](Cc2c[nH]c3ccccc23)NC(=O)[C@H](CCCCN)NC(=O)[C@@H](NC(C)=O)CCNC(=O)CC[C@@H](C(N)=O)NC(=O)[C@H](CCC(N)=O)NC1=O` [Example 122, Ac-c(Dab-Lys-Trp-Ile-Gln-Glu)-NH2] (Ac-[Dab]KWIQE-NH2; lactam 1-6): 10 nM.
`CC[C@H](C)[C@@H]1NC(=O)[C@H](Cc2c[nH]c3ccccc23)NC(=O)[C@H](CCCCN)NC(=O)[C@@H](NC(C)=O)CCCNC(=O)CC[C@@H](C(N)=O)NC(=O)[C@H](CCC(N)=O)NC1=O` [Example 123, Ac-c(Orn-Lys-Trp-Ile-Gln-Glu)-NH2] (Ac-[Orn]KWIQE-NH2; lactam 1-6) returned an EC50 of 7 nM.
The value for `CC[C@H](C)[C@@H]1NC(=O)[C@H](Cc2c[nH]c3ccccc23)NC(=O)[C@H](CCCCN)NC(=O)[C@@H](NC(C)=O)CCCCNC(=O)CC[C@@H](C(N)=O)NC(=O)[C@H](CCC(N)=O)NC1=O` [Example 124, Ac-c(Lys-Lys-Trp-Ile-Gln-Glu)-NH2] (Ac-KKWIQE-NH2; lactam 1-6) was 8 nM.
For the compound `CC[C@H](C)[C@@H]1NC(=O)[C@H](Cc2c[nH]c3ccccc23)NC(=O)[C@H](CCCCN)NC(=O)CCC(=O)NC[C@@H](C(N)=O)NC(=O)[C@H](CCC(N)=O)NC1=O` [Example 125, c(Succinyl-Lys-Trp-Ile-Gln-Dap)-NH2] (KWIQ[Dap]-NH2; linker N-5 via Suc), the EC50 came to 15 nM.
`CC[C@H](C)[C@@H]1NC(=O)[C@H](Cc2c[nH]c3ccccc23)NC(=O)[C@H](CCCCN)NC(=O)CCC(=O)NCC[C@@H](C(N)=O)NC(=O)[C@H](CCC(N)=O)NC1=O` [Example 126, c(Succinyl-Lys-Trp-Ile-Gln-Dab)-NH2] (KWIQ[Dab]-NH2; linker N-5 via Suc) showed an EC50 of 6 nM.
The same measure for `CC[C@H](C)[C@@H]1NC(=O)[C@H](Cc2c[nH]c3ccccc23)NC(=O)[C@H](CCCCN)NC(=O)CCCC(=O)NC[C@@H](C(N)=O)NC(=O)[C@H](CCC(N)=O)NC1=O` [Example 127, c(Glutaryl-Lys-Trp-Ile-Gln-Dap)-NH2NH2] (KWIQ[Dap]-NH2; linker N-5 via Glutaryl): 7 nM; for `CC[C@H](C)[C@@H]1NC(=O)[C@H](Cc2c[nH]c3ccccc23)NC(=O)[C@H](CCCCN)NC(=O)CCCC(=O)NCC[C@@H](C(N)=O)NC(=O)[C@H](CCC(N)=O)NC1=O` [Example 128, c(Glutaryl-Lys-Trp-Ile-Gln-Dab)-NH2] (KWIQ[Dab]-NH2; linker N-5 via Glutaryl): 10 nM.
The value for `CC[C@H](C)[C@@H]1NC(=O)[C@H](Cc2c[nH]c3ccccc23)NC(=O)[C@H](CCCCN)NC(=O)CCCC(=O)NCCCC[C@@H](C(N)=O)NC(=O)[C@H](CCC(N)=O)NC1=O` [Example 129, c(Glutaryl-Lys-Trp-Ile-Gln-Lys)-NH2] (KWIQK-NH2; linker N-5 via Glutaryl) was 400 nM; that for `CC[C@H](C)[C@@H]1NC(=O)[C@H](Cc2c[nH]c3ccccc23)NC(=O)[C@H](CCCCN)NC(=O)COCC(=O)NC[C@@H](C(N)=O)NC(=O)[C@H](CCC(N)=O)NC1=O` [Example 130, c(Diglycolyl-Lys-Trp-Ile-Gln-Dap)-NH2] (KWIQ[Dap]-NH2; linker N-5 via Diglycolyl) was 50 nM; that for `CC[C@H](C)[C@@H]1NC(=O)[C@H](Cc2c[nH]c3ccccc23)NC(=O)[C@H](CCCCN)NC(=O)COCC(=O)NCC[C@@H](C(N)=O)NC(=O)[C@H](CCC(N)=O)NC1=O` [Example 131, c(Diglycolyl-Lys-Trp-Ile-Gln-Dab)-NH2] (KWIQ[Dab]-NH2; linker N-5 via Diglycolyl) was 30 nM.
Consider `CC[C@H](C)[C@@H]1NC(=O)[C@H](Cc2c[nH]c3ccccc23)NC(=O)[C@H](CCCCN)NC(=O)COCC(=O)NCCC[C@@H](C(N)=O)NC(=O)[C@H](CCC(N)=O)NC1=O` [Example 132, c(Diglycolyl-Lys-Trp-Ile-Gln-Orn)-NH2] (KWIQ[Orn]-NH2; linker N-5 via Diglycolyl), for which the EC50 is 200 nM.
The same measure for `CCCCCCCCCC(=O)N[C@@H](CCC(=O)NCCCC[C@H](N)C(=O)N[C@H]1CSSC[C@@H](C(N)=O)NC(=O)[C@H](CCC(N)=O)NC(=O)[C@H]([C@@H](C)CC)NC(=O)[C@H](Cc2c[nH]c3ccccc23)NC(=O)[C@H](CCCCN)NC(=O)[C@H](CCC(N)=O)NC(=O)[C@H](CCCCN)NC(=O)[C@@H]2CCCN2C(=O)[C@H](CC(=O)O)NC(=O)[C@H](CC(C)C)NC1=O)C(=O)O` [Example 173, Lys{Nε-[γ-Glu-(Nα-decanoyl)]}-c(Cys-Leu-Asp-Pro-Lys-Gln-Lys-Trp-Ile-Gln-Cys)-NH2] (H-K([γGlu-Decanoyl])CLDPKQKWIQC-NH2; disulfide 2-12): greater than 1000 nM.
The same measure for `CC(C)(C)OC(=O)N1Cc2ccccc2C[C@H]1C(=O)NCCC(=O)NC1CCC(=O)NC1=O` (stereo partly drawn) [Example 174, BOC-Tic-βAla-α-aminoglutaramide]: 200 nM; for `N[C@@H](Cc1c[nH]c2ccccc12)C(=O)NCC(=O)NC1CCC(=O)NC1=O` (stereo partly drawn) [Example 180, Trp-Gly-α-aminoglutaramide]: 25 nM; for `CC(C)[C@H](NC(=O)[C@@H](N)Cc1c[nH]c2ccccc12)C(=O)NC1CCC(=O)NC1=O` (stereo partly drawn) [Example 181, Trp-Val-α-aminoglutaramide]: 20 nM.
Consider `CC[C@@H](C)[C@H]1NC(=O)[C@@H](CCC(N)=O)NC(=O)[C@H](NC(C)=O)CSSC[C@H](C(N)=O)NC(=O)[C@@H](CCCCN)NC(=O)[C@@H](Cc2c[nH]c3ccccc23)NC1=O` [Example 190, Ac-c(D-Cys-D-Gln-D-Ile-D-Trp-D-Lys-D-Cys)-NH2] (Ac-[dC][dQ][dI][dW][dK][dC]-NH2; disulfide 1-6), for which the EC50 is 30 nM.
`CC[C@@H](C)[C@H]1NC(=O)[C@@H](CCC(N)=O)NC(=O)[C@H](NC(=O)c2ccccc2)CSSC[C@H](C(N)=O)NC(=O)[C@@H](CCCCN)NC(=O)[C@@H](Cc2c[nH]c3ccccc23)NC1=O` [Example 192, Benzoyl-c(D-Cys-D-Gln-D-Ile-D-Trp-D-Lys-D-Cys)-NH2] (Bz-[dC][dQ][dI][dW][dK][dC]-NH2; disulfide 1-6) had an EC50 of 7 nM.
The same measure for `CC[C@@H](C)[C@H]1NC(=O)[C@@H](CCC(N)=O)NC(=O)[C@H](NC(=O)C(C)C)CSSC[C@H](C(N)=O)NC(=O)[C@@H](CCCCN)NC(=O)[C@@H](Cc2c[nH]c3ccccc23)NC1=O` [Example 193, Isobutyryl-c(D-Cys-D-Gln-D-Ile-D-Trp-D-Lys-D-Cys)-NH2] (Isobutyryl-[dC][dQ][dI][dW][dK][dC]-NH2; disulfide 1-6): 25 nM.
The value for `CC[C@@H](C)[C@H]1NC(=O)[C@@H](CCC(N)=O)NC(=O)CCNC(=O)C[C@H](C(N)=O)NC(=O)[C@@H](CCCCN)NC(=O)[C@@H](Cc2c[nH]c3ccccc23)NC1=O` [Example 195, c((βAla-D-Gln-D-Ile-D-Trp-D-Lys-D-Asp)-NH2] ([βAla][dQ][dI][dW][dK][dD]-NH2; lactam N-6) was 45 nM; that for `CC[C@@H](C)[C@H]1NC(=O)[C@@H](CCC(N)=O)NC(=O)CCCNC(=O)C[C@H](C(N)=O)NC(=O)[C@@H](CCCCN)NC(=O)[C@@H](Cc2c[nH]c3ccccc23)NC1=O` [Example 196, c(Gaba-D-Gln-D-Ile-D-Trp-D-Lys-D-Asp)-NH2] ([GABA][dQ][dI][dW][dK][dD]-NH2; lactam N-6) was 50 nM; that for `CC[C@@H](C)[C@H]1NC(=O)[C@@H](CCC(N)=O)NC(=O)CCCCNC(=O)C[C@H](C(N)=O)NC(=O)[C@@H](CCCCN)NC(=O)[C@@H](Cc2c[nH]c3ccccc23)NC1=O` [Example 197, c(Apn-D-Gln-D-Ile-D-Trp-D-Lys-D-Asp)-NH2] ([Ava][dQ][dI][dW][dK][dD]-NH2; lactam N-6) was 20 nM.
